{
  "source": "patent US20160310505A1",
  "about": "“PROSTAMIDES FOR ENHANCEMENT OF LEPTIN PRODUCTION” (Allergan, Inc., priority 2013, published 2016)",
  "key": {"[1]": {"assay": "Cafeteria diet induced fatty liver in rats, liver histology", "assay_type": "in vivo", "settings": "cafeteria diet 10 weeks", "excerpt": "Rats were fed the cafeteria diet for 10 weeks and administered bimatoprost daily. At the end of 10 weeks, livers were resected and examined by histology. […] This has important consequences in the potential treatment of non-alcoholic fatty liver disease (NAFLD)."}, "pre-adipocyte": {"tested_on": "pre-adipocyte", "assay": "Pre-adipocyte differentiation", "assay_type": "cell-based"}, "human pre-adipocytes": {"tested_on": "human pre-adipocytes", "assay": "Leptin production in human pre-adipocytes", "assay_type": "cell-based", "settings": "1 μM, 8 days, vehicle DMSO", "procedure": "Vehicle is DMSO, bimatoprost treatment at 1 μM. Stimulation of leptin over 8-days of bimatoprost treatment; In FIG. 1, bimatoprost was applied topically once per day for 6 months to rats. […] FIG. 2 describes the systemic exposure (topically applied) of bimatoprost by measuring blood levels of the compound after treatment. […] The in vivo action of bimatoprost is likely a dual mechanism to inhibit food intake and suppress replenishment of fat cells during normal turnover. […] Blood was drawn every 2 weeks and the serum was analyzed for leptin levels by luminex assay. […] A cafeteria diet is a high sugar and fat diet with typical “junk food”: […]"}, "Leptin": {"tested_on": "Leptin", "assay": "Serum leptin levels by luminex assay in male rats on a cafeteria diet", "assay_type": "in vivo", "procedure": "In FIG. 1, bimatoprost was applied topically once per day for 6 months to rats. […] FIG. 2 describes the systemic exposure (topically applied) of bimatoprost by measuring blood levels of the compound after treatment. […] The in vivo action of bimatoprost is likely a dual mechanism to inhibit food intake and suppress replenishment of fat cells during normal turnover. […] Blood was drawn every 2 weeks and the serum was analyzed for leptin levels by luminex assay. […] A cafeteria diet is a high sugar and fat diet with typical “junk food”: […]"}, "[2]": {"assay": "Patient use examples (transdermal patch or topical gel)", "assay_type": "in vivo, human", "excerpt": "A person who is morbidly obese applies a bimatoprost transdermal skin patch on their arm, which uniformly releases a 5% w/w bimatoprost formulation over a thirty day period. […] The patient loses 6 pounds more than they would have otherwise lost without using the bimatoprost transdermal skin patch. A person applies a 3% w/w bimatoprost gel to their skin once a day. […] A person with elevated blood pressure has been determined by doctors to have prediabetes. In addition to being on a low fat, low sugar diet, the patient uses a transdermal bimatoprost patch which releases a 3% w/w bimatoprost formulation through the dermis and into the blood stream. […] A person is diagnosed with non-alcoholic fatty liver. The patient applies a transdermal bimatoprost patch which releases a 2% w/w bimatoprost formulation. […] A healthy person in an effort to lose weight is on a low fat diet. In order to suppress their appetite, the person applies a bimatoprost transdermal patch which continually releases 1% w/w bimatoprost for 30 days."}, "[3]": {"assay": "Once a day topical application to rats for six months (subcutaneous fat, body weight)", "assay_type": "in vivo", "settings": "for subcutaneous fat: topical once a day, six months, ~10% body surface coverage; for body weight (FIG. 2): topical treatment", "excerpt": "Bimatoprost (AGN 192024) is a synthetic prostamide which has been used in intraocular pressure lowering therapeutics such as LUMIGAN® 0.03, LUMIGAN® 0.01 and GANFORT®. […] In FIG. 1, bimatoprost was applied topically once per day for 6 months to rats. […] FIG. 2 describes the systemic exposure (topically applied) of bimatoprost by measuring blood levels of the compound after treatment. […] The in vivo action of bimatoprost is likely a dual mechanism to inhibit food intake and suppress replenishment of fat cells during normal turnover. […] Blood was drawn every 2 weeks and the serum was analyzed for leptin levels by luminex assay. […] A cafeteria diet is a high sugar and fat diet with typical “junk food”: […]"}, "[4]": {"settings": "Example 1: transdermal skin patch, 5% w/w, thirty days"}, "[5]": {"settings": "Example 3: prediabetes patient, transdermal patch, 3% w/w"}, "[6]": {"settings": "Example 5: transdermal patch, 1% w/w, 30 days"}},
  "note": "“Also recorded” adds a separate entry of the source.",
  "data": [
    {"compound": "CCNC(=O)CCC/C=C\\C[C@@H]1[C@@H](/C=C/[C@@H](O)CCc2ccccc2)[C@H](O)C[C@@H]1O", "note": "[bimatoprost, Bimatoprost]", "values": [
      {"measurement": "liver lipidosis", "setting": "[1]; 0.3% bimatoprost formulation daily", "result": "reduced lipidosis as compared to the control"},
      {"measurement": "liver lipidosis", "setting": "[1]; 1% bimatoprost formulation daily", "result": "reduced lipidosis as compared to the control"},
      {"measurement": "cafeteria diet induced fatty liver changes (FIG. 5)", "setting": "[1]; topical daily", "result": "dose-dependently decreases cafeteria diet induced fatty liver changes; also recorded: inhibited cafeteria diet induced fatty liver disease"},
      {"measurement": "differentiation of pre-adipocytes", "setting": "pre-adipocyte", "result": "inhibit differentiation"},
      {"measurement": "leptin production (FIG. 3)", "setting": "human pre-adipocytes", "result": "increases Leptin production; also recorded: increase in leptin production"},
      {"measurement": "serum leptin levels", "setting": "Leptin; male rats on cafeteria diet, 0.3% bimatoprost in BSHG formulation topical daily, p<0.01, 2-way ANOVA", "result": "elevated levels of Leptin"},
      {"measurement": "leptin levels (FIG. 4)", "setting": "Leptin; rats on a cafeteria diet, topical daily", "result": "elevated leptin levels"},
      {"measurement": "leptin levels", "setting": "[2]; Example 1: morbidly obese person, transdermal skin patch, 5% w/w, thirty days", "result": "leptin levels increase"},
      {"measurement": "additional weight lost versus no patch", "setting": "[2]; [4]", "result": 6, "unit": "pounds"},
      {"measurement": "appetite", "setting": "[2]; [4]", "result": "suppressed appetite"},
      {"measurement": "leptin levels", "setting": "[2]; Example 2: 3% w/w gel on skin once a day, after several days", "result": "elevated leptin levels"},
      {"measurement": "appetite", "setting": "[2]; Example 2: 3% w/w gel once a day", "result": "suppresses appetite"},
      {"measurement": "body weight", "setting": "[2]; Example 2: 3% w/w gel once a day, sixty day period", "result": "maintains their weight"},
      {"measurement": "appetite", "setting": "[2]; [5]", "result": "reduction in appetite"},
      {"measurement": "blood leptin levels", "setting": "[2]; [5]", "result": "immediate increase in blood leptin levels"},
      {"measurement": "body weight", "setting": "[2]; [5]", "result": "weight loss"},
      {"measurement": "lipidosis in the liver", "setting": "[2]; Example 4: non-alcoholic fatty liver patient, transdermal patch, 2% w/w", "result": "reduction in lipidosis in the liver"},
      {"measurement": "leptin levels", "setting": "[2]; Example 5: healthy female on low fat diet, transdermal patch, 1% w/w, 30 days", "result": "leptin levels rise"},
      {"measurement": "appetite", "setting": "[2]; [6]", "result": "suppression of their appetite"},
      {"measurement": "body weight", "setting": "[2]; [6]", "result": "greater weight loss"},
      {"measurement": "subcutaneous fat at sites distal to the application site (FIG. 1)", "setting": "[3]; 3% w/v bimatoprost vs vehicle", "result": "subcutaneous fat reduction at sites distal to the application site"},
      {"measurement": "subcutaneous fat", "setting": "[3]", "result": "substantial local subcutaneous fat reduction, as well as reduction at adjunct and distal sites"},
      {"measurement": "subcutaneous fat", "setting": "[3]; listed as Bimatoprost", "result": "subcutaneous fat loss at sites distant from the application site"},
      {"measurement": "body weight (FIG. 2)", "setting": "[3]", "result": "reduction in body weight"},
      {"measurement": "body weight (FIG. 2)", "setting": "[3]; listed as Bimatoprost", "result": "reduction in weight over time"}
    ]}
  ]
}
